Assay results as given in PubChem BioAssay (NCI).
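In this assay, cells in 96-well plates receive the compound at five concentrations for 48 hours. Endpoints are linearly interpolated between the surrounding concentrations. GI50 = concentration required for 50% inhibition of growth. TGI: total growth inhibition.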 Where a SMILES comes first, the peptide text is derived from it. [ ]: non-standard residue; d: D form. The star is where a group is joined. ξ: configuration not given here. 4Abz = Nc1ccc(C(=O)O)cc1; ξL = CC(C)CC(N)C(=O)O; NHOH = ON*

Key:
Assay in all cases: DTP human tumour cell line panel, 48 h
T-47D breast = test system: T-47D breast
MDA-MB-231 breast = test system: MDA-MB-231 breast
MCF7 breast = test system: MCF7 breast
NCI-H460 lung = test system: NCI-H460 lung
SN12C renal = test system: SN12C renal
K-562 leukemia = test system: K-562 leukemia
SF-295 CNS = test system: SF-295 CNS

SMILES	GI50 (T-47D breast)	TGI (T-47D breast)	GI50 (MDA-MB-231 breast)	TGI (MDA-MB-231 breast)	GI50 (MCF7 breast)	TGI (MCF7 breast)	GI50 (NCI-H460 lung)	TGI (NCI-H460 lung)	GI50 (SN12C renal)	TGI (SN12C renal)	GI50 (K-562 leukemia)	TGI (K-562 leukemia)	TGI (SF-295 CNS)	GI50 (SF-295 CNS)
N=C(N)c1ccc(-c2ccc(-c3ccco3)o2)cc1	2.92 µM	12.7 µM	2.75 µM	7.75 µM	2.08 µM	14.3 µM	2.43 µM	6.6 µM	5.97 µM	21.2 µM	2.66 µM	10.4 µM		
O=C(O)c1cc(/C=C/c2ccc(O)c(O)c2)ccc1O		> 100 µM		> 100 µM		51.4 µM		> 100 µM		> 100 µM		44.9 µM	> 100 µM	
NC(=O)c1ncn(C2CCC(CP(=O)(O)O)C2)c1N (stereo unspecified)		> 100 µM		> 100 µM		> 100 µM		> 100 µM		> 100 µM			> 100 µM	
O=C1C=Cc2cc3ccccc3c3cccc1c23	21.2 µM	> 100 µM	4.72 µM	29 µM	5.26 µM	37.7 µM	3.37 µM	11.6 µM	2.71 µM	11.3 µM	5.59 µM	> 100 µM	35.8 µM	7.65 µM
NC(=O)NC1=NCCC(=O)N1CCc1c[nH]c2ccccc12		65.5 µM		29.4 µM				39.5 µM		54.7 µM		32.9 µM	> 100 µM	
COc1ccc2c(c1)Cc1cc(N=[N+]([O-])c3ccc4c(c3)Cc3cc(OC)ccc3-4)ccc1-2		> 100 µM		> 100 µM		64.4 µM		> 100 µM		> 100 µM		> 100 µM	> 100 µM	
Cc1ccc(NC(=O)C(=O)C2C(=O)C3=C(CC2(C)C)NC2C=CC=CC2S3)c(C)c1 (stereo unspecified)				> 100 µM		> 100 µM		> 100 µM		> 100 µM			> 100 µM	
COc1ccc(/C(C#N)=C/c2nc3c(N4CCOCC4)nc(Cl)nc3n2C)cc1OC	0.272 µM	3.15 µM	< 0.0133 µM	2.46 µM	< 0.0137 µM	1.75 µM	< 0.01 µM	1.99 µM	< 0.01 µM	1.48 µM	< 0.01 µM	11.4 µM	2.17 µM	< 0.01 µM
C=C1c2c(C)nn(-c3ccccc3)c2N(C)C23C[C@@H]1C1(C)c4c(C)nn(-c5ccccc5)c4N(C)C(C)(C[C@H]12)C3 (stereo partly specified)	2.13 µM	> 100 µM	4.55 µM	39.6 µM	2.99 µM	> 100 µM	3.35 µM	> 100 µM	9.92 µM	> 100 µM				
COc1ccc(-n2cc(-c3ccc(Cl)cc3)[nH]c2=S)cc1Cl	18.4 µM	> 100 µM	22.1 µM	82.2 µM	34.3 µM	> 100 µM	50.5 µM	> 100 µM	39.1 µM	> 100 µM	> 100 µM	> 100 µM	57.7 µM	22 µM
O=C(O)/C=C/C(=O)Nc1cccc2c1-c1ccccc1C2=O		> 100 µM		81.3 µM		> 100 µM		> 35.5 µM		> 100 µM		> 64.1 µM	> 33.8 µM	
CCSc1sc(-c2ccc(C)cc2)nc1[P+](c1ccccc1)(c1ccccc1)c1ccccc1	0.0863 µM	1.27 µM	0.259 µM	1.14 µM			0.306 µM	1.12 µM	0.294 µM	1.11 µM	0.195 µM	1.44 µM	0.736 µM	0.235 µM
COC(=O)C(=O)C(C(=O)C(=O)Nc1ccc(Cl)cc1Cl)c1nc2ccc(Cl)cc2[nH]c1=O (stereo unspecified)				> 100 µM		> 100 µM		> 100 µM		> 100 µM			> 100 µM	
c1ccc2c(c1)N=c1ccccc1=P21c2ccccc2Nc2ccccc21		1.63 µM				5.74 µM		10.7 µM		13.5 µM		> 100 µM	7.64 µM	
COc1cccc(-n2cnc3c(N/N=C/c4ccncc4)ncnc32)c1	11.2 µM	> 25 µM	> 20.3 µM	> 25 µM	> 25 µM	> 25 µM	13.6 µM	> 25 µM	13.2 µM	> 25 µM	10.9 µM	> 25 µM	> 25 µM	> 25 µM
CC(C)=CCNc1ncnc2c1ncn2C1OC(COP(=O)(O)O)C(O)C1O (stereo unspecified)	4.96 µM	25.4 µM	1.85 µM	5.48 µM	1.72 µM	> 91.3 µM	7.24 µM	> 100 µM	3.94 µM	> 100 µM	4.22 µM	> 100 µM	34 µM	5.8 µM

SMILES	GI50 (T-47D breast)	TGI (T-47D breast)	GI50 (MDA-MB-231 breast)	TGI (MDA-MB-231 breast)	GI50 (MCF7 breast)	TGI (MCF7 breast)	GI50 (NCI-H460 lung)	TGI (NCI-H460 lung)	GI50 (SN12C renal)	TGI (SN12C renal)	GI50 (K-562 leukemia)	TGI (K-562 leukemia)	TGI (SF-295 CNS)	GI50 (SF-295 CNS)
CC(C)CC(NC(=O)[C@@H]1CCCN1C(=O)CNC(=O)c1ccc(N)cc1)C(=O)N[C@H](C)C(=O)NO (stereo partly specified) (H-[4Abz]GP[ξL][dA]-{NHOH})	> 100 µM	> 100 µM	> 100 µM	> 100 µM	> 100 µM	> 100 µM	> 100 µM	> 100 µM			> 100 µM	> 100 µM	> 100 µM	> 100 µM
Cc1c(Br)cccc1NC(=O)c1sc2nc3c(cc2c1N)CN(Cc1ccccc1)CC3	0.205 µM	> 50 µM	0.531 µM	38.1 µM	0.17 µM	> 50 µM	0.191 µM	5.02 µM	0.384 µM	> 50 µM			9.42 µM	0.129 µM
CC(CC(C)[C@H]1CCC2[C@H]3C(CC[C@@]21C)[C@@]1(C)CCC(O)C[C@H]1C[C@@H]3O)C(=O)O (stereo partly specified)		> 100 µM		> 100 µM		> 100 µM		> 100 µM		> 100 µM		> 100 µM		
Cc1cc(CC(O)(C(F)(F)F)C(F)(F)F)cc(CC(O)(C(F)(F)F)C(F)(F)F)n1		7.3 µM		6.84 µM				4.2 µM		9.25 µM		> 100 µM	9.94 µM	
COc1ccc(-c2ccc(/C=N/n3cnn(CN4CCN(C)CC4)c3=S)o2)c([N+](=O)[O-])c1	23.1 µM	54.3 µM	25.3 µM	77.1 µM	28.7 µM	97.4 µM	35.2 µM	> 100 µM			33.6 µM	> 100 µM		
Nc1nc(Cl)cc2c1ncn2C1OC(CO)C(O)C1O (stereo unspecified)	> 100 µM	> 100 µM	52.3 µM	> 100 µM	> 100 µM	> 100 µM	> 100 µM	> 100 µM			> 100 µM	> 100 µM		
CC(=O)NC1=NC(=O)/C(=C/c2ccc(Cl)cc2Cl)N1C				> 100 µM		> 100 µM		> 100 µM					> 100 µM	
COc1cc(OC)cc(-c2n[nH]nc2-c2ccc3c(c2)OCO3)c1			0.529 µM	31.5 µM	0.0768 µM	> 100 µM	0.335 µM	28.7 µM	2.14 µM	> 100 µM	0.0496 µM	> 100 µM	3.61 µM	0.0989 µM
O=C(/C=C/c1ccccc1O)CC(=O)/C=C/c1ccccc1O		> 31.6 µM				7.61 µM		30.7 µM		20.6 µM		> 31.6 µM	> 31.6 µM	
COC(=O)c1ccc2c(c1)[n+](=O)c(C(C)=O)c(C(F)(F)F)n2[O-]	2.06 µM	4.2 µM	1.98 µM	3.88 µM	1.76 µM	3.37 µM	1.81 µM	3.45 µM			2.31 µM	7.7 µM	2.78 µM	1.33 µM
CCCCC#Cc1c(I)n(C2OC(CO[Si](C)(C)C(C)(C)C)C3OC(C)(C)OC32)c(=O)[nH]c1=O (stereo unspecified)			2.44 µM	9.55 µM					10.2 µM	22.2 µM	2.02 µM	5.02 µM	51.5 µM	22 µM
Cn1c(=O)c2[nH]c(Nc3ccccc3)nc2n(C)c1=O		> 10 µM		> 10 µM		> 10 µM				> 10 µM		> 10 µM	> 10 µM	
COC(=O)C1=C(O)C(C(=O)OC)[C@@]2(O)[C@@H](C(=O)OC)C(c3ccccc3C(F)(F)F)C[C@@H]1[C@@H]2C(=O)OC (stereo partly specified)	0.737 µM	5.98 µM	7.99 µM	22.4 µM	2.99 µM	12.1 µM	3.11 µM	10.5 µM	4.33 µM	15.2 µM	2.15 µM	9.52 µM		
COc1cc(C2CC(c3ccc(C)cc3)=NN2C(C)=O)ccc1Oc1ccnc2cc(Cl)ccc12 (stereo unspecified)	2.28 µM	73.4 µM	11.3 µM	> 100 µM	> 100 µM	> 100 µM			> 100 µM	> 100 µM	> 100 µM	> 100 µM	> 100 µM	2.52 µM
COc1cc2c(cc1OC)[C@@H]1[C@H](C2=O)c2ccc([N+](=O)[O-])cc2C(=O)N1CCCBr	< 0.01 µM	> 100 µM	1.45 µM	6.61 µM	< 0.01 µM	0.284 µM			0.277 µM	0.934 µM	1.26 µM	> 100 µM		
